Measurements reported in patent US12215112B2, “CD151 inhibitors” (ESFAM BIOTECH PTY LTD, priority 2020, dated 2025).

System: PC3 cells
Test: xCELLigence RTCA real-time cell invasion assay (CIM plate, Matrigel) on PC3 prostate cancer cells
Type: cell-based
Settings: Homo sapiens, PC-3, compound 25 uM to 1 uM, cell index monitored for 72 hours, four-parameter dose-response curve, read-out: IC50, Effect of compounds on the invention on prostate cancer cells
Summary of the method: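 PC3 invasion through 5% Matrigel-coated CIM-plate upper chambers was tracked as impedance cell index over 72 h. Compound at 25–1 µM was present in both chambers, with 3×10^4 cells seeded in serum-free RPMI. IC50 came from a four-parameter fit, and IC90 was derived from IC50 and the Hill slope.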

`CC(=O)Nc1cccc(NC(=O)c2nn3c(-c4cn[nH]c4)cc(N4Cc5ccc(Cl)cc5C4)nc3c2C(C)C)c1` [Compound 82, N-(3-acetamidophenyl)-5-(5-chloroisoindolin-2-yl)-3-isopropyl-7-(1H-pyrazol-4-yl)pyrazolo[1,5-a]pyrimidine-2-carboxamide] and `CC(C)c1c(C(=O)Nc2cccc(O)c2)nn2c(-c3cn[nH]c3)cc(N3Cc4ccc(Cl)cc4C3)nc12` [Compound 100, 5-(5-chloroisoindolin-2-yl)-N-(3-hydroxyphenyl)-3-isopropyl-7-(1H-pyrazol-4-yl)pyrazolo[1,5-a]pyrimidine-2-carboxamide] are within 1.5-fold of each other in IC50: 2.92 µM for the first, 2.23 µM for the second.

Going from `CC(=O)N1CCN(c2cccc(NC(=O)c3nn4c(-c5cn[nH]c5)cc(N5Cc6ccc(Cl)cc6C5)nc4c3C(C)C)c2)CC1` [Compound 83, N-(3-(4-acetylpiperazin-1-yl)phenyl)-5-(5-chloroisoindolin-2-yl)-3-isopropyl-7-(1H-pyrazol-4-yl)pyrazolo[1,5-a]pyrimidine-2-carboxamide] to `CC(=O)N1CCN(c2ccc(NC(=O)c3nn4c(-c5cn[nH]c5)cc(N5Cc6ccc(Cl)cc6C5)nc4c3C(C)C)cc2)CC1` [Compound 84, N-(4-(4-acetylpiperazin-1-yl)phenyl)-5-(5-chloroisoindolin-2-yl)-3-isopropyl-7-(1H-pyrazol-4-yl)pyrazolo[1,5-a]pyrimidine-2-carboxamide], the IC50 falls from 10.1 µM to 1.1 µM (9.2-fold). The second is the more potent here.

Going from `COc1cccc(NC(=O)c2nn3c(-c4cn[nH]c4)cc(N4Cc5ccc(Cl)cc5C4)nc3c2C(C)(C)C)c1` [Compound 89, 3-(tert-butyl)-5-(5-chloroisoindolin-2-yl)-N-(3-methoxyphenyl)-7-(1H-pyrazol-4-yl)pyrazolo[1,5-a]pyrimidine-2-carboxamide] to `COc1ccc(F)c(NC(=O)c2nn3c(-c4cn[nH]c4)cc(N4Cc5ccc(Cl)cc5C4)nc3c2C(C)C)c1` [Compound 120, 5-(5-chloroisoindolin-2-yl)-N-(2-fluoro-5-methoxyphenyl)-3-isopropyl-7-(1H-pyrazol-4-yl)pyrazolo[1,5-a]pyrimidine-2-carboxamide], the IC50 rises from 3.11 µM to 4.94 µM (1.6-fold).

Going from `O=C(Nc1cccc(O)c1)c1nn2c(-c3cn[nH]c3)cc(N3Cc4ccccc4C3)nc2c1C1CC1` [Compound 94, 3-cyclopropyl-N-(3-hydroxyphenyl)-5-(isoindolin-2-yl)-7-(1H-pyrazol-4-yl)pyrazolo[1,5-a]pyrimidine-2-carboxamide] to `O=C(Nc1cccc(Cl)c1)c1nn2c(-c3cn[nH]c3)cc(N3Cc4ccccc4C3)nc2c1C1CC1` [Compound 98, N-(3-chlorophenyl)-3-cyclopropyl-5-(isoindolin-2-yl)-7-(1H-pyrazol-4-yl)pyrazolo[1,5-a]pyrimidine-2-carboxamide], the IC50 rises from 6.21 µM to 12.5 µM (2-fold).

Going from `CC(=O)N1CCN(c2cccc(NC(=O)c3nn4c(-c5cn[nH]c5)cc(N5Cc6ccccc6C5)nc4c3C3CC3)c2)CC1` [Compound 95, N-(3-(4-acetylpiperazin-1-yl)phenyl)-3-cyclopropyl-5-(isoindolin-2-yl)-7-(1H-pyrazol-4-yl)pyrazolo[1,5-a]pyrimidine-2-carboxamide] to `CC(=O)Nc1cccc(NC(=O)c2nn3c(-c4cn[nH]c4)cc(N4Cc5ccccc5C4)nc3c2C2CC2)c1` [Compound 97, N-(3-acetamidophenyl)-3-cyclopropyl-5-(isoindolin-2-yl)-7-(1H-pyrazol-4-yl)pyrazolo[1,5-a]pyrimidine-2-carboxamide], the IC50 falls from 2.12 µM to 1.08 µM (2-fold). The second is the more potent here.

Going from `COc1ccc(NC(=O)c2nn3c(-c4cn[nH]c4)cc(N4Cc5ccccc5C4)nc3c2C2CC2)cc1` [Compound 96, 3-cyclopropyl-5-(isoindolin-2-yl)-N-(4-methoxyphenyl)-7-(1H-pyrazol-4-yl)pyrazolo[1,5-a]pyrimidine-2-carboxamide] to `CC(C)c1c(C(=O)Nc2ccc(OC3CCOCC3)cc2)nn2c(-c3cn[nH]c3)cc(N3Cc4ccc(Cl)cc4C3)nc12` [Compound 119, 5-(5-chloroisoindolin-2-yl)-3-isopropyl-7-(1H-pyrazol-4-yl)-N-(4-((tetrahydro-2H-pyran-4-yl)oxy)phenyl)pyrazolo[1,5-a]pyrimidine-2-carboxamide], the IC50 falls from 6.47 µM to 3.15 µM (2.1-fold).

Compared with `CC(C)c1c(C(=O)Nc2cccc(O)c2)nn2c(-c3cn[nH]c3)cc(N3Cc4ccc(F)cc4C3)nc12` [Compound 99, 5-(5-fluoroisoindolin-2-yl)-N-(3-hydroxyphenyl)-3-isopropyl-7-(1H-pyrazol-4-yl)pyrazolo[1,5-a]pyrimidine-2-carboxamide], `CC(C)c1c(C(=O)Nc2cccc(N3CCOCC3)c2)nn2c(-c3cn[nH]c3)cc(N3Cc4ccc(F)cc4C3)nc12` [Compound 101, 5-(5-fluoroisoindolin-2-yl)-3-isopropyl-N-(3-morpholinophenyl)-7-(1H-pyrazol-4-yl)pyrazolo[1,5-a]pyrimidine-2-carboxamide] is 3.2-fold higher in IC50: 1.23 µM for the first, 3.99 µM for the second.

Going from `COCCOc1ccc(NC(=O)c2nn3c(-c4cn[nH]c4)cc(N4Cc5ccc(F)cc5C4)nc3c2C(C)C)cc1` [Compound 102, 5-(5-fluoroisoindolin-2-yl)-3-isopropyl-N-(4-(2-methoxyethoxy)phenyl)-7-(1H-pyrazol-4-yl)pyrazolo[1,5-a]pyrimidine-2-carboxamide] to `COCCOc1ccc(NC(=O)c2nn3c(-c4cn[nH]c4)cc(N4Cc5ccc(Cl)cc5C4)nc3c2C(C)C)cc1` [Compound 109, 5-(5-chloroisoindolin-2-yl)-3-isopropyl-N-(4-(2-methoxyethoxy)phenyl)-7-(1H-pyrazol-4-yl)pyrazolo[1,5-a]pyrimidine-2-carboxamide], the IC50 rises from 1.27 µM to 3.23 µM (2.5-fold). The first is the more potent here.

`CC(C)c1c(C(=O)Nc2ccc3cn[nH]c3c2)nn2c(-c3cn[nH]c3)cc(N3Cc4ccc(F)cc4C3)nc12` [Compound 104, 5-(5-fluoroisoindolin-2-yl)-N-(1H-indazol-6-yl)-3-isopropyl-7-(1H-pyrazol-4-yl)pyrazolo[1,5-a]pyrimidine-2-carboxamide] and `CC(C)c1c(C(=O)Nc2cccc(OC3CCOCC3)c2)nn2c(-c3cn[nH]c3)cc(N3Cc4ccc(F)cc4C3)nc12` [Compound 121, 5-(5-fluoroisoindolin-2-yl)-3-isopropyl-7-(1H-pyrazol-4-yl)-N-(3-((tetrahydro-2H-pyran-4-yl)oxy)phenyl)pyrazolo[1,5-a]pyrimidine-2-carboxamide] are within 1.5-fold of each other in IC50: 2.89 µM for the first, 2.75 µM for the second.

`CC(C)c1c(C(=O)Nc2ccc(N3CCOCC3)cc2)nn2c(-c3cn[nH]c3)cc(N3Cc4ccc(F)cc4C3)nc12` [Compound 106, 5-(5-fluoroisoindolin-2-yl)-3-isopropyl-N-(4-morpholinophenyl)-7-(1H-pyrazol-4-yl)pyrazolo[1,5-a]pyrimidine-2-carboxamide] and `CC(C)c1c(C(=O)Nc2ccc(N3CCOCC3)cc2)nn2c(-c3cn[nH]c3)cc(N3Cc4ccc(Cl)cc4C3)nc12` [Compound 107, 5-(5-chloroisoindolin-2-yl)-3-isopropyl-N-(4-morpholinophenyl)-7-(1H-pyrazol-4-yl)pyrazolo[1,5-a]pyrimidine-2-carboxamide] are within 1.5-fold of each other in IC50: 2.02 µM for the first, 2.36 µM for the second.

Molecule `CC(C)c1c(C(=O)Nc2cccc(N3CCOCC3)c2)nn2c(-c3cn[nH]c3)cc(N3Cc4ccc(Cl)cc4C3)nc12` [Compound 108, 5-(5-chloroisoindolin-2-yl)-3-isopropyl-N-(3-morpholinophenyl)-7-(1H-pyrazol-4-yl)pyrazolo[1,5-a]pyrimidine-2-carboxamide] has an IC50 of 18.7 µM.
